In patent publication US4230702A, “Readily enterally absorbable pharmaceutical compositions of per se poorly enterally absorbable pharmacologically active agents” (priority 1978, dated 1980):
Read-outs that look alike come from different tables or passages of the source.

Tests used:
[1] = Blood (serum) level of benzarone, comparison of areas beneath the blood level curves; assay type: in vivo, rat; conditions: 1000 mg/kg oral, rats, solution in Rilanit GMO compared with aqueous suspension, up to 15 hours
Description: For determining the blood level values, a dose of 1000 mg/kg of benzarone in form of a solution in Rilanit GMO^4) and in form of a suspension in water are administered to rats by means of an oral feeding tube.
Subsequently every two hours including the 10th hour, 8 animals of each group, and after 15 hours, 4 more animals of each group are sacrificed and their blood is recovered by means of a cordial cut. The amount of benzarone in the serum is determined spectrophotometrically. The measured blood level values are plotted on a graph and the areas beneath the resulting blood level curves are compared.

[2] = Renal excretion of benzarone, comparison of areas beneath the curves; assay type: in vivo, rat; conditions: 1000 mg/kg oral, rats, solution in Rilanit GMO compared with aqueous suspension, 15 hours
Description: Furthermore doses of 1000 mg/kg of benzarone in the form of a solution in Rilanit GMO^4) and in form of a suspension in water are orally administered to rats by means of an oral feeding tube. The urine of the animals is collected every 2 hours over a period of 15 hours and the amount of the excreted benzarone therein is determined spectrophotometrically. The measured values are plotted on a graph and the areas beneath the resulting curves are compared.

[3] = Oral toxicity (LD50) of solutions in partial glycerides versus suspension in aqueous tylose; conditions: guinea pig, in vivo, female guinea pigs
Description: For testing the toxicity, solutions of g-strophanthin, proscillaridin A or medrogestone in various mixtures of mono-and diglycerides of long chain fatty acids and comparative formulations of the same pharmacologically active agents suspended in a tylose solution in water are administered orally to female guinea pigs of 250 to 300 g body weight by means of an oral feeding tube.

[4] = Renal excretion of carbon-14 labelled progesterone, cumulative urinary 14C; assay type: in vivo, guinea pig; conditions: 20 mg/kg oral; for Cumulative Renal Excretion of Progesterone: guinea pigs
Description: For determining the renal excretion, a dose of 20 mg/kg of carbon-14 labelled progesterone in the form of solutions in various mixtures of partial glycerides of long chain fatty acids and a comparative formulation wherein the progesterone is suspended in an aqueous tylose solution are administered orally to female guinea pigs having an average body weight of about 300 g. The urine of the animals is collected every 24 hours and the ^14 C-content in equal amounts of the urine is determined. The cumulated amount of excreted material is shown in Table II below in % of the administered dose. The percentage of excreted material is about 83% for the solution of progesterone in Peceol.

[5] = solution in Peceol (mono, di, and triglycerides of oleic acid), read-out: LD50 in Peceol
[6] = solution in Witafrol 7470 (mono- and diglycerides of oleic acid), read-out: LD50 in Witafrol 7470
[7] = suspended in tylose (methylcellulose) solution in water, read-out: LD50 in Tylose

CCc1oc2ccccc2c1C(=O)c1ccc(O)cc1 [benzarone, 2-ethyl-3-(4-hydroxybenzoyl)benzofuran]
increase of the concentration of benzarone in the serum (comparison of areas beneath blood level curves) [1]: 257% | increase of the renal excretion of benzarone (comparison of areas beneath the curves) [2]: 437%

CC1OC(OC2CC(O)C3(CO)C4C(O)CC5(C)C(C6=CC(=O)OC6)CCC5(O)C4CCC3(O)C2)C(O)C(O)C1O (stereo not shown) [g-strophanthin]
LD50 [3, 5]: 8.38 mg/kg | LD50 [3, 6]: 8.28 mg/kg | LD50 [3, 7]: 34.8 mg/kg

CC(=O)[C@@]1(C)CC[C@H]2[C@@H]3C=C(C)C4=CC(=O)CC[C@]4(C)[C@H]3CC[C@@]21C [medrogestone]
LD50 [3, 5]: 850 mg/kg | LD50 ([3]; solution in Rilanit GMO (mono- and diglycerides of oleic acid), read-out: LD50 in Rilanit GMO): 862 mg/kg | LD50 [3, 7]: 1470 mg/kg

CC(=O)[C@H]1CC[C@H]2[C@@H]3CCC4=CC(=O)CC[C@]4(C)[C@H]3CC[C@]12C [progesterone]
percentage of excreted material ([4]; female guinea pigs, 14C-progesterone, solution in Peceol, % of the administered dose): about 83% | amount of excreted material relative to the suspension in the tylose solution ([4]; female guinea pigs, solution in Peceol versus tylose suspension): about twice as high | Cumulative Renal Excretion of Progesterone ([4]; Peceol X1, 1. day): 46.0 % of the Administered Dose | Cumulative Renal Excretion of Progesterone ([4]; Peceol X1, 2. day): 64.6 % of the Administered Dose | Cumulative Renal Excretion of Progesterone ([4]; Peceol X1, 3. day): 71.6 % of the Administered Dose | Cumulative Renal Excretion of Progesterone ([4]; Peceol X1, 4. day): 76.1 % of the Administered Dose | Cumulative Renal Excretion of Progesterone ([4]; Peceol X1, 5. day): 79.1 % of the Administered Dose | Cumulative Renal Excretion of Progesterone ([4]; Peceol X1, 6. day): 81.1 % of the Administered Dose | Cumulative Renal Excretion of Progesterone ([4]; Peceol X1, 7. day): 82.9 % of the Administered Dose | Cumulative Renal Excretion of Progesterone ([4]; Softigen 701, 1. day): 51.6 % of the Administered Dose | Cumulative Renal Excretion of Progesterone ([4]; Softigen 701, 2. day): 63.2 % of the Administered Dose | Cumulative Renal Excretion of Progesterone ([4]; Softigen 701, 3. day): 66.2 % of the Administered Dose | Cumulative Renal Excretion of Progesterone ([4]; Softigen 701, 4. day): 66.9 % of the Administered Dose | Cumulative Renal Excretion of Progesterone ([4]; Softigen 701, 5. day): 67.4 % of the Administered Dose | Cumulative Renal Excretion of Progesterone ([4]; Softigen 701, 6. day): 67.6 % of the Administered Dose | Cumulative Renal Excretion of Progesterone ([4]; Softigen 701, 7. day): 67.7 % of the Administered Dose | Cumulative Renal Excretion of Progesterone ([4]; Tegin 0, 1. day): 37.9 % of the Administered Dose | Cumulative Renal Excretion of Progesterone ([4]; Tegin 0, 2. day): 48.7 % of the Administered Dose | Cumulative Renal Excretion of Progesterone ([4]; Tegin 0, 3. day): 51.6 % of the Administered Dose | Cumulative Renal Excretion of Progesterone ([4]; Tegin 0, 4. day): 52.3 % of the Administered Dose | Cumulative Renal Excretion of Progesterone ([4]; Tegin 0, 5. day): 52.6 % of the Administered Dose | Cumulative Renal Excretion of Progesterone ([4]; Tegin 0, 6. day): 52.8 % of the Administered Dose | Cumulative Renal Excretion of Progesterone ([4]; Tegin 0, 7. day): 52.9 % of the Administered Dose | Cumulative Renal Excretion of Progesterone ([4]; Tegomuls X10, 1. day): 42.5 % of the Administered Dose | Cumulative Renal Excretion of Progesterone ([4]; Tegomuls X10, 2. day): 58.3 % of the Administered Dose | Cumulative Renal Excretion of Progesterone ([4]; Tegomuls X10, 3. day): 69.2 % of the Administered Dose | Cumulative Renal Excretion of Progesterone ([4]; Tegomuls X10, 4. day): 75.2 % of the Administered Dose | Cumulative Renal Excretion of Progesterone ([4]; Tegomuls X10, 5. day): 78.8 % of the Administered Dose | Cumulative Renal Excretion of Progesterone ([4]; Tegomuls X10, 6. day): 80.6 % of the Administered Dose | Cumulative Renal Excretion of Progesterone ([4]; Tegomuls X10, 7. day): 81.9 % of the Administered Dose | Cumulative Renal Excretion of Progesterone ([4]; Tegomuls X17, 1. day): 43.7 % of the Administered Dose | Cumulative Renal Excretion of Progesterone ([4]; Tegomuls X17, 2. day): 55.0 % of the Administered Dose | Cumulative Renal Excretion of Progesterone ([4]; Tegomuls X17, 3. day): 62.0 % of the Administered Dose | Cumulative Renal Excretion of Progesterone ([4]; Tegomuls X17, 4. day): 66.6 % of the Administered Dose | Cumulative Renal Excretion of Progesterone ([4]; Tegomuls X17, 5. day): 70.0 % of the Administered Dose | Cumulative Renal Excretion of Progesterone ([4]; Tegomuls X17, 6. day): 71.9 % of the Administered Dose | Cumulative Renal Excretion of Progesterone ([4]; Tegomuls X17, 7. day): 73.9 % of the Administered Dose | Cumulative Renal Excretion of Progesterone ([4]; Tylose, 1. day): 29.7 % of the Administered Dose | Cumulative Renal Excretion of Progesterone ([4]; Tylose, 2. day): 39.1 % of the Administered Dose | Cumulative Renal Excretion of Progesterone ([4]; Tylose, 3. day): 43.0 % of the Administered Dose | Cumulative Renal Excretion of Progesterone ([4]; Tylose, 4. day): 44.0 % of the Administered Dose | Cumulative Renal Excretion of Progesterone ([4]; Tylose, 5. day): 44.5 % of the Administered Dose | Cumulative Renal Excretion of Progesterone ([4]; Tylose, 6. day): 46.2 % of the Administered Dose | Cumulative Renal Excretion of Progesterone ([4]; Tylose, 7. day): 46.4 % of the Administered Dose

C[C@@H]1O[C@@H](O[C@@H]2C=C3CC[C@@H]4[C@H](CC[C@]5(C)[C@@H](c6ccc(=O)oc6)CC[C@]45O)[C@@]3(C)CC2)[C@H](O)[C@H](O)[C@H]1O [proscillaridin A]
LD50 [3, 5]: 7.77 mg/kg | LD50 [3, 6]: 6.81 mg/kg | LD50 [3, 7]: 12.3 mg/kg
